According to US5017703A, “Indolylpiperidine compounds, processes for the preparation thereof and pharmaceutical composition comprising the same” (Fujisawa Pharmaceutical Company, Ltd., priority 1988, dated 1991):
Converted amounts (≈) assume the structure as drawn.

system: anaphylactic asthma in guinea pigs; assay: Antagonistic action on anaphylactic asthma in guinea pigs; type: in vivo, Male Hartley-strain guinea pigs; details: Cavia porcellus; oral, 30 min before 5% egg-white albumin aerosol; passively sensitized guinea pigs, 5 per group; survival for not less than 2 hours; read-out: Prophylactic Effect ED50
Protocol: Antagonistic action on anaphylactic asthma in guinea pigs.
Male Hartley-strain guinea pigs weighing 305-400g were used. These animals were sensitized by intravenous injection of 0.5 ml/animal of rabbit antiserum to egg-white albumin (PCA antibody titer 4,000). After 24 hours, the animals were housed individually in 5.3-liter plastic chambers. Using a commercial sprayer, a 5% egg-white albumin solution was sprayed in the form of an aerosol into each chamber at a rate of 0.16 ml/min for 2 minutes. Thirty minutes prior to the spraying of the egg-white albumin solution, the test compound was administered orally in varied concentrations. Each dosed group consisted of 5 animals. The prophylactic effect to anaphylaxis was expressed in terms of the ED50 value determined on the basis of the number of guinea pigs which had survived for not less than 2 hours after antigen spraying for each administration concentration of the test compound.

| SMILES | ED50 |
| --- | --- |
| COc1cc(/C=C/C=C/C(=O)NCCCCN2CCC(c3c[nH]c4ccccc34)CC2)ccc1O [Compound A, 1-[4-{5-(4-Hydroxy-3-methoxyphenyl)-(2E, 4E)-2,4-pentadienoylamino}butyl]-4-(3-indolyl)-piperidine] | 0.5 mg/kg |
| COc1cc(/C=C/C=C/C(=O)NCCN2CCC(c3c[nH]c4ccccc34)CC2)cc(OC)c1O [Compound C, 1-[2-{5-(4-Hydroxy-3,5-dimethoxyphenyl)-(2E, 4E)-2,4-pentadienoylamino}ethyl]-4-(3-indolyl)piperidine] | 0.5 mg/kg |

system: SRS-A synthesis or release from peritoneal exudate cells; assay: Anti-SRS-A activity (SRS-A synthesis or release from peritoneal exudate cells); type: cell-based, SD rats; details: rat peritoneal exudate cells, Ca++-ionophore A23187 1 μg/ml, indomethacin 10 μg/ml; SRS-A determined by contractility of isolated guinea pig ileum; read-out: Inhibitory Concentration IC50
Protocol: Peritoneal exudate cells were collected from glycogen-injected SD rats and adjusted to 1×10^7 cells/ml with Tyrode's solution. One milliliter of the cell suspension was incubated with indomethacin (10 μg/ml) and each varied concentration of the test compound for 10 minutes and, then, further incubated with Ca^++ -ionophore (A23187, 1 μg/ml) for 10 minutes. The supernatant was collected by centrifugation and the SRS-A (slow-reacting substance of anaphylaxis) activity was determined in terms of contractility of the isolated guinea pig ileum in the presence of mepyramine, atropine and methysergide.
The results were expressed in terms of the 50% inhibitory concentration to SRS-A synthesis or release from peritoneal exudate cells.

| SMILES | IC50 |
| --- | --- |
| COc1cc(/C=C/C=C/C(=O)NCCN2CCC(c3c[nH]c4ccccc34)CC2)cc(OC)c1OC(C)=O [Compound E, 1-[2-{5-(4-Acetoxy-3,5-dimethoxyphenyl)-(2E, 4E)-2,4-pentadienoylamino}ethyl]-4-(3-indolyl)piperidine] | 0.23 µg/mL (≈ 0.444 µM) |
| COc1cc(/C=C/C=C/C(=O)NCCN2CCC(c3c[nH]c4ccccc34)CC2)ccc1OC(C)=O [Compound D, 1-[2-{5-(4-Acetoxy-3-methoxyphenyl)-(2E, 4E)-2,4-pentadienoylamino}ethy]-4-(3-indolyl)piperidine] | 0.6 µg/mL (≈ 1.23 µM) |

Results, then the compound that gave them:

| IC50 | SMILES |
| --- | --- |
| 0.91 µg/mL (≈ 2.04 µM) | COc1cc(/C=C/C=C/C(=O)NCCN2CCC(c3c[nH]c4ccccc34)CC2)ccc1O [Compound B, 1-[2-{5-(4-Hydroxy-3-methoxyphenyl)-(2E, 4E)-2,4-pentadienoylamino}ethyl]-4-(3-indolyl)piperidine] |
| 0.65 µg/mL (≈ 1.34 µM) | O=C(/C=C/C=C/c1cc(Cl)c(O)c(Cl)c1)NCCN1CCC(c2c[nH]c3ccccc23)CC1 [Compound F, 1-[2-{5-(3,5-Dichloro-4-hydroxyphenyl)-(2E, 4E)-2,4-pentadienoylamino}ethyl]-4-(3-indolyl)piperidine] |
| 0.68 µg/mL (≈ 1.43 µM) | COc1cc(/C=C/C=C/C(=O)NCCN2CCC(c3c[nH]c4ccccc34)CC2)cc(OC)c1O [Compound C, 1-[2-{5-(4-Hydroxy-3,5-dimethoxyphenyl)-(2E, 4E)-2,4-pentadienoylamino}ethyl]-4-(3-indolyl)piperidine] |
